Assay results: article PMC5964007 (Nature chemical biology, 2018)

Legend:
[1] = molecular target: T1, E. coli penicillin amidase (Escherichia coli, UniProt P06875); test: pH-shift colorimetric kinetic assay; type: biochemical; conditions: pH 8.4, 10 mM m-nitrophenol, 25 °C, 5 U/ml enzyme
[2] = molecular target: T1, E. coli penicillin amidase; test: pH-shift colorimetric kinetic assay; type: biochemical; conditions: 5 mM MOPS pH 7.2, 25 °C

T1 sequence (P06875 27-235): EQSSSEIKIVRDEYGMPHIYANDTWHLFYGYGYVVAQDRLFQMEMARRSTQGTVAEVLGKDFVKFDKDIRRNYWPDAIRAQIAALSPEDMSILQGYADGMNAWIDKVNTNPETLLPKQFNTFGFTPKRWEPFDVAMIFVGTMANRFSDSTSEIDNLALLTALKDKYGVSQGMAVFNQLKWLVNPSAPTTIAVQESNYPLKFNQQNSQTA
T1 sequence (P06875 290-846): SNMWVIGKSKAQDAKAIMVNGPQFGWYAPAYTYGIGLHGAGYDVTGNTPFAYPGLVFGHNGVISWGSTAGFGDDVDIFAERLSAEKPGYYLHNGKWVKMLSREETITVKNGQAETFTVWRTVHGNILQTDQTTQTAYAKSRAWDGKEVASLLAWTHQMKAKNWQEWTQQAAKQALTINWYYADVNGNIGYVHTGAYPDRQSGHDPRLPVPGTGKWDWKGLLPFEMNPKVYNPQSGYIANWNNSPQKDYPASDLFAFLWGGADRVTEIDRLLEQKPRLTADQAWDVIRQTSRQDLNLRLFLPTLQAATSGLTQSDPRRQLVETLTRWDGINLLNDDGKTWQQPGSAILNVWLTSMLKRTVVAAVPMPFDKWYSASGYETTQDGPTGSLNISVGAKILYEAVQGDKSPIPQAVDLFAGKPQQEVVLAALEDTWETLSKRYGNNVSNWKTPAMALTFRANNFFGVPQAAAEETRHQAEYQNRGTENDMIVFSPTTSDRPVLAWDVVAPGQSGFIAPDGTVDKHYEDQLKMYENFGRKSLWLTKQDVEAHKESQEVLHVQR

SMILES	pH-shift colorimetric kinetic assay (m-nitrophenol); LCMS [1]	pH-shift colorimetric kinetic assay (p-nitrophenol) [2]
CC1(C)S[C@H]([C@H](NC(=O)Cc2ccccc2)C(=O)O)N[C@H]1C(=O)O [benzylpenicilloic acid]	when both Put1 and E. coli penicillin amidase were incubated with benzylpenicilloic acid as a substrate	
CC1(C)S[C@@H]2[C@H](NC(=O)Cc3ccccc3)C(=O)N2[C@H]1C(=O)O [penicillin]		E. coli penicillin amidase and commercial B. cereus β-lactamase enzymes exhibit Michaelis-Menten kinetics with penicillin
